Results taken from US4016280A, “4,4-Diarylpiperidine compositions and use” (Byk Gulden Lomberg Chemische Fabrik GmbH, priority 1969, dated 1977).
“Also recorded” adds a separate entry of the source.

test system: albino mouse; assay: Antagonism in the albino mouse of tremorine tremor; type: in vivo; settings: Mus musculus, po; tremorine 15 mg/kg i.p.; drug per os; Examples 28, 29: 50 to 300 mg/kg
Procedure: (§1) Antagonism in the albino mouse
(§2) of tion dation p.o.) i.p.)
(§3) *drugs administered per os
(§4) **administered in doses from 50 to 300 mg/kg

Row | Compound | ED50 [mg/kg]
1 | CCN1CCC(c2ccccc2)(c2ccccc2)CC1 [Example 3, 1-Ethyl-4,4-diphenylpiperidine] | 1
2 | COCCCN1CCC(c2ccccc2)(c2ccccc2)CC1 [Example 7, 1-(3-Methoxypropyl)-4,4-diphenylpiperidine] | 3
3 | OCCN1CCC(c2ccccc2)(c2ccccc2)CC1 [Example 9, 1-(2-Hydroxyethyl)-4,4-diphenylpiperidine] | 10
4 | CC(=O)CN1CCC(c2ccccc2)(c2ccccc2)CC1 [Example 17, 1-Acetonyl-4,4-diphenylpiperidine] | 17
5 | c1ccc(C2(c3ccccc3)CCNCC2)cc1 [Example 19, 4,4-Diphenylpiperidine] | 2
6 | CCC(C)N1CCC(c2ccccc2)(c2ccccc2)CC1 (stereo not shown) [Example 26, 1-(secondary Butyl)-4,4-diphenylpiperidine] | 5
7 | OCCCN1CCC(c2ccccc2)(c2ccccc2)CC1 [Example 30, 1-(3-hydroxypropyl)-4,4-diphenylpiperidine] | 5

same assay, conditions: tremorine 15 mg/kg i.p.; drug per os; Examples 28, 29: 50 to 300 mg/kg

Row | Compound | Tremorine tremor antagonism ED50
8 | c1ccc(CCN2CCC(c3ccccc3)(c3ccccc3)CC2)cc1 [Example 5, 1-Phenethyl-4,4-diphenylpiperidine] | .phi. (no effect)
9 | CC(=O)CCN1CCC(c2ccccc2)(c2ccccc2)CC1 [Example 32, 1-(2-Acetoethyl)-4,4-diphenylpiperidine] | 15 mg/kg

test system: not listed separately; assay: Acute toxicity in the albino mouse; settings: mouse, in vivo, iv; Table 2; i.v.; read-out: Acute toxicity in the albino mouse LD50 i.v.
Procedure: As stated above, the compounds of formula I have advantageous central nervous system stimulating properties. Side-effects, as they are encountered on administration of amphetamine-type stimulants, are produced to a much lesser extent by the 4,4-diphenylpiperidine compounds, if at all. […] The tests were carried out according to known and accepted pharmacological standard test methods.
a Acute toxicity 150 mg./kg. 100 mg./kg.

Row | Compound | LD50 [mg/kg]
10 | CCN1CCC(c2ccccc2)(c2ccccc2)CC1 [Example 3, 1-Ethyl-4,4-diphenylpiperidine] | 45
11 | c1ccc(CCN2CCC(c3ccccc3)(c3ccccc3)CC2)cc1 [Example 5, 1-Phenethyl-4,4-diphenylpiperidine] | 19
12 | COCCCN1CCC(c2ccccc2)(c2ccccc2)CC1 [Example 7, 1-(3-Methoxypropyl)-4,4-diphenylpiperidine] | 30
13 | OCCN1CCC(c2ccccc2)(c2ccccc2)CC1 [Example 9, 1-(2-Hydroxyethyl)-4,4-diphenylpiperidine] | 33
14 | c1ccc(CN2CCC(c3ccccc3)(c3ccccc3)CC2)cc1 [Example 10, 1-Benzyl-4,4-diphenylpiperidine] | 20
15 | CC(=O)CN1CCC(c2ccccc2)(c2ccccc2)CC1 [Example 17, 1-Acetonyl-4,4-diphenylpiperidine] | 34
16 | c1ccc(C2(c3ccccc3)CCNCC2)cc1 [Example 19, 4,4-Diphenylpiperidine] | 25
17 | CCC(C)N1CCC(c2ccccc2)(c2ccccc2)CC1 (stereo not shown) [Example 26, 1-(secondary Butyl)-4,4-diphenylpiperidine] | 19
18 | OCCCN1CCC(c2ccccc2)(c2ccccc2)CC1 [Example 30, 1-(3-hydroxypropyl)-4,4-diphenylpiperidine] | 32

same assay, conditions: mouse, in vivo, po; Table 2; p.o.; read-out: Acute toxicity in the albino mouse LD50 p.o.

Row | Compound | LD50 [mg/kg]
19 | CCN1CCC(c2ccccc2)(c2ccccc2)CC1 [Example 3, 1-Ethyl-4,4-diphenylpiperidine] | 150

test system: albino mouse; assay: General behaviour of the albino mouse with different doses; type: in vivo; settings: albino mouse
Procedure: Acute toxi- General behaviour of the albino
city in the mouse with different doses*
as §3, §4

Row | Compound | Locomotory activity (in words) | Restlessness, stereotypia or salivation (in words) | Vigilance of the animal (in words)
20 | COCCCN1CCC(c2ccccc2)(c2ccccc2)CC1 [Example 7, 1-(3-Methoxypropyl)-4,4-diphenylpiperidine] | only slightly increased | without causing restlessness, sterotypia or salivation | strong increase
21 | OCCN1CCC(c2ccccc2)(c2ccccc2)CC1 [Example 9, 1-(2-Hydroxyethyl)-4,4-diphenylpiperidine] | only slightly increased | without causing restlessness, sterotypia or salivation | strong increase
22 | c1ccc(CN2CCC(c3ccccc3)(c3ccccc3)CC2)cc1 [Example 10, 1-Benzyl-4,4-diphenylpiperidine] | only slightly increased | without causing restlessness, sterotypia or salivation | strong increase
23 | CC(=O)CN1CCC(c2ccccc2)(c2ccccc2)CC1 [Example 17, 1-Acetonyl-4,4-diphenylpiperidine] | only slightly increased | without causing restlessness, sterotypia or salivation | strong increase
24 | c1ccc(C2(c3ccccc3)CCNCC2)cc1 [Example 19, 4,4-Diphenylpiperidine] | only slightly increased | without causing restlessness, sterotypia or salivation | strong increase
25 | CCC(C)N1CCC(c2ccccc2)(c2ccccc2)CC1 (stereo not shown) [Example 26, 1-(secondary Butyl)-4,4-diphenylpiperidine] | only slightly increased | without causing restlessness, sterotypia or salivation | strong increase
26 | OCCCN1CCC(c2ccccc2)(c2ccccc2)CC1 [Example 30, 1-(3-hydroxypropyl)-4,4-diphenylpiperidine] | only slightly increased | without causing restlessness, sterotypia or salivation | strong increase
27 | CC(=O)CCN1CCC(c2ccccc2)(c2ccccc2)CC1 [Example 32, 1-(2-Acetoethyl)-4,4-diphenylpiperidine] | only slightly increased | without causing restlessness, sterotypia or salivation | strong increase

same assay, conditions: albino mouse, different doses per os; Examples 28, 29: 50 to 300 mg/kg

Row | Compound | Locomotory activity | Restlessness Stereotype | Salivation | Vigilance
28 | CCN1CCC(c2ccccc2)(c2ccccc2)CC1 [Example 3, 1-Ethyl-4,4-diphenylpiperidine] | (+) | .phi. (no effect) | .phi. (no effect) | ++
29 | c1ccc(CCN2CCC(c3ccccc3)(c3ccccc3)CC2)cc1 [Example 5, 1-Phenethyl-4,4-diphenylpiperidine] | - (decrease) | .phi. (no effect) | .phi. (no effect) | + (increase)
30 | COCCCN1CCC(c2ccccc2)(c2ccccc2)CC1 [Example 7, 1-(3-Methoxypropyl)-4,4-diphenylpiperidine] | (+) | .phi. (no effect) | .phi. (no effect) | ++
31 | OCCN1CCC(c2ccccc2)(c2ccccc2)CC1 [Example 9, 1-(2-Hydroxyethyl)-4,4-diphenylpiperidine] | (+) | .phi. (no effect) | .phi. (no effect) | ++
32 | c1ccc(CN2CCC(c3ccccc3)(c3ccccc3)CC2)cc1 [Example 10, 1-Benzyl-4,4-diphenylpiperidine] |  |  |  | ++
33 | CC(=O)CN1CCC(c2ccccc2)(c2ccccc2)CC1 [Example 17, 1-Acetonyl-4,4-diphenylpiperidine] | (+) | .phi. (no effect) | .phi. (no effect) | ++
34 | c1ccc(C2(c3ccccc3)CCNCC2)cc1 [Example 19, 4,4-Diphenylpiperidine] | (+) | .phi. (no effect) | .phi. (no effect) | ++
35 | CCC(C)N1CCC(c2ccccc2)(c2ccccc2)CC1 (stereo not shown) [Example 26, 1-(secondary Butyl)-4,4-diphenylpiperidine] | (+) | .phi. (no effect) | .phi. (no effect) | ++
36 | OCCCN1CCC(c2ccccc2)(c2ccccc2)CC1 [Example 30, 1-(3-hydroxypropyl)-4,4-diphenylpiperidine] | + (increase) | .phi. (no effect) | .phi. (no effect) | ++
37 | CC(=O)CCN1CCC(c2ccccc2)(c2ccccc2)CC1 [Example 32, 1-(2-Acetoethyl)-4,4-diphenylpiperidine] | (+) | .phi. (no effect) | .phi. (no effect) | ++

same assay, conditions: albino mouse, per os

Row | Compound | Remark under Locomotory activity (Ataxy)
38 | c1ccc(CCN2CCC(c3ccccc3)(c3ccccc3)CC2)cc1 [Example 5, 1-Phenethyl-4,4-diphenylpiperidine] | Ataxy

test system: albino mouse; assay: Antagonism in the albino mouse of reserpine (preventive and curative ptosis/sedation); type: in vivo; settings: Mus musculus, po; reserpine 2mg/kg sc.; drug per os; Examples 28, 29: 50 to 300 mg/kg; read-out: Reserpine antagonism, Curative Sedation ED50
Procedure: as §1
(§5) Com- Preventive Curative catalepsy
as §2, §3, §4

Row | Compound | ED50 [mg/kg]
39 | CCN1CCC(c2ccccc2)(c2ccccc2)CC1 [Example 3, 1-Ethyl-4,4-diphenylpiperidine] | 50
40 | OCCN1CCC(c2ccccc2)(c2ccccc2)CC1 [Example 9, 1-(2-Hydroxyethyl)-4,4-diphenylpiperidine] | 15
41 | CC(=O)CN1CCC(c2ccccc2)(c2ccccc2)CC1 [Example 17, 1-Acetonyl-4,4-diphenylpiperidine] | ~25
42 | c1ccc(C2(c3ccccc3)CCNCC2)cc1 [Example 19, 4,4-Diphenylpiperidine] | 10
43 | CCC(C)N1CCC(c2ccccc2)(c2ccccc2)CC1 (stereo not shown) [Example 26, 1-(secondary Butyl)-4,4-diphenylpiperidine] | 10

same assay, conditions: Mus musculus, po; reserpine 2mg/kg sc.; drug per os; Examples 28, 29: 50 to 300 mg/kg; read-out: Reserpine antagonism, Curative ptosis ED50

Row | Compound | ED50 [mg/kg]
44 | CCN1CCC(c2ccccc2)(c2ccccc2)CC1 [Example 3, 1-Ethyl-4,4-diphenylpiperidine] | > 50
45 | CC(=O)CN1CCC(c2ccccc2)(c2ccccc2)CC1 [Example 17, 1-Acetonyl-4,4-diphenylpiperidine] | > 25
46 | c1ccc(C2(c3ccccc3)CCNCC2)cc1 [Example 19, 4,4-Diphenylpiperidine] | > 50

same assay, conditions: Mus musculus, po; reserpine 2mg/kg sc.; drug per os; read-out: Reserpine antagonism, Preventive Sedation ED50

Row | Compound | ED50 [mg/kg]
47 | CCN1CCC(c2ccccc2)(c2ccccc2)CC1 [Example 3, 1-Ethyl-4,4-diphenylpiperidine] | 5
48 | c1ccc(CCN2CCC(c3ccccc3)(c3ccccc3)CC2)cc1 [Example 5, 1-Phenethyl-4,4-diphenylpiperidine] | 3
49 | OCCN1CCC(c2ccccc2)(c2ccccc2)CC1 [Example 9, 1-(2-Hydroxyethyl)-4,4-diphenylpiperidine] | 8
50 | CC(=O)CN1CCC(c2ccccc2)(c2ccccc2)CC1 [Example 17, 1-Acetonyl-4,4-diphenylpiperidine] | 15
51 | c1ccc(C2(c3ccccc3)CCNCC2)cc1 [Example 19, 4,4-Diphenylpiperidine] | 5
52 | CCC(C)N1CCC(c2ccccc2)(c2ccccc2)CC1 (stereo not shown) [Example 26, 1-(secondary Butyl)-4,4-diphenylpiperidine] | 10
53 | OCCCN1CCC(c2ccccc2)(c2ccccc2)CC1 [Example 30, 1-(3-hydroxypropyl)-4,4-diphenylpiperidine] | 25

same assay, conditions: Mus musculus, po; reserpine 2mg/kg sc.; drug per os; read-out: Reserpine antagonism, Preventive ptosis ED50

Row | Compound | ED50 [mg/kg]
54 | CCN1CCC(c2ccccc2)(c2ccccc2)CC1 [Example 3, 1-Ethyl-4,4-diphenylpiperidine] | 5
55 | c1ccc(CCN2CCC(c3ccccc3)(c3ccccc3)CC2)cc1 [Example 5, 1-Phenethyl-4,4-diphenylpiperidine] | 3
56 | OCCN1CCC(c2ccccc2)(c2ccccc2)CC1 [Example 9, 1-(2-Hydroxyethyl)-4,4-diphenylpiperidine] | 10
57 | CC(=O)CN1CCC(c2ccccc2)(c2ccccc2)CC1 [Example 17, 1-Acetonyl-4,4-diphenylpiperidine] | 12
58 | c1ccc(C2(c3ccccc3)CCNCC2)cc1 [Example 19, 4,4-Diphenylpiperidine] | 10
59 | CCC(C)N1CCC(c2ccccc2)(c2ccccc2)CC1 (stereo not shown) [Example 26, 1-(secondary Butyl)-4,4-diphenylpiperidine] | 25
60 | OCCCN1CCC(c2ccccc2)(c2ccccc2)CC1 [Example 30, 1-(3-hydroxypropyl)-4,4-diphenylpiperidine] | 25

same assay, conditions: reserpine 2mg/kg sc.; drug per os

Row | Compound | Reserpine antagonism, Preventive Sedation ED50 [mg/kg] | Reserpine antagonism, Preventive ptosis ED50 [mg/kg]
61 | CC(=O)CCN1CCC(c2ccccc2)(c2ccccc2)CC1 [Example 32, 1-(2-Acetoethyl)-4,4-diphenylpiperidine] | 15 | 10

same assay, conditions: reserpine 2mg/kg sc.; drug per os; Examples 28, 29: 50 to 300 mg/kg

Row | Compound | Reserpine antagonism, Curative Sedation ED50 | Reserpine antagonism, Curative ptosis ED50
62 | c1ccc(CCN2CCC(c3ccccc3)(c3ccccc3)CC2)cc1 [Example 5, 1-Phenethyl-4,4-diphenylpiperidine] | (+) | (+)
63 | OCCN1CCC(c2ccccc2)(c2ccccc2)CC1 [Example 9, 1-(2-Hydroxyethyl)-4,4-diphenylpiperidine] |  | (+)
64 | CCC(C)N1CCC(c2ccccc2)(c2ccccc2)CC1 (stereo not shown) [Example 26, 1-(secondary Butyl)-4,4-diphenylpiperidine] |  | (+)
65 | OCCCN1CCC(c2ccccc2)(c2ccccc2)CC1 [Example 30, 1-(3-hydroxypropyl)-4,4-diphenylpiperidine] | .phi. (no effect) | (+)
66 | CC(=O)CCN1CCC(c2ccccc2)(c2ccccc2)CC1 [Example 32, 1-(2-Acetoethyl)-4,4-diphenylpiperidine] | ~ 50 mg/kg | > 60 mg/kg

test system: not given; assay: not given; settings: Marshall, Brit. J. Pharmacol. 10, 270 (1955), technique of Schild; cited from earlier work

Row | Compound | Antihistaminic activity
67 | CCC(C)N1CCC(c2ccccc2)(c2ccccc2)CC1 (stereo not shown) [Example 26, 1-(secondary Butyl)-4,4-diphenylpiperidine] | devoid of any therapeutically-utilizable antihistaminic activity; also recorded: devoid of any therapeutically utilizable antihistaminic activity

test system: albino mouse; assay: Antagonism in the albino mouse of perphenazine catalepsy; type: in vivo; settings: Mus musculus, po; perphenazine 10 mg/kg p.o.; drug per os; Examples 28, 29: 50 to 300 mg/kg
Procedure: as §1, §5, §2, §3, §4

Row | Compound | ED50 [mg/kg]
68 | CCN1CCC(c2ccccc2)(c2ccccc2)CC1 [Example 3, 1-Ethyl-4,4-diphenylpiperidine] | 2
69 | OCCN1CCC(c2ccccc2)(c2ccccc2)CC1 [Example 9, 1-(2-Hydroxyethyl)-4,4-diphenylpiperidine] | 15
70 | CC(=O)CN1CCC(c2ccccc2)(c2ccccc2)CC1 [Example 17, 1-Acetonyl-4,4-diphenylpiperidine] | > 25
71 | c1ccc(C2(c3ccccc3)CCNCC2)cc1 [Example 19, 4,4-Diphenylpiperidine] | 20
72 | CCC(C)N1CCC(c2ccccc2)(c2ccccc2)CC1 (stereo not shown) [Example 26, 1-(secondary Butyl)-4,4-diphenylpiperidine] | 7
73 | OCCCN1CCC(c2ccccc2)(c2ccccc2)CC1 [Example 30, 1-(3-hydroxypropyl)-4,4-diphenylpiperidine] | 5

same assay, conditions: perphenazine 10 mg/kg p.o.; drug per os; Examples 28, 29: 50 to 300 mg/kg

Row | Compound | Perphenazine catalepsy antagonism ED50 [mg/kg]
74 | CC(=O)CCN1CCC(c2ccccc2)(c2ccccc2)CC1 [Example 32, 1-(2-Acetoethyl)-4,4-diphenylpiperidine] | 45
